Among the data in ChEMBL document CHEMBL1127123, “Justicidin E: A new leukotriene biosynthesis inhibitor” (Bioorg Med Chem Lett, 1993) are IC50 values, retold here.

Where only a bound is given, the exact number is not on record here.

The target of the first assay is T1, Polyunsaturated fatty acid 5-lipoxygenase (Homo sapiens, UniProt P09917).
T1 sequence (P09917 whole entry): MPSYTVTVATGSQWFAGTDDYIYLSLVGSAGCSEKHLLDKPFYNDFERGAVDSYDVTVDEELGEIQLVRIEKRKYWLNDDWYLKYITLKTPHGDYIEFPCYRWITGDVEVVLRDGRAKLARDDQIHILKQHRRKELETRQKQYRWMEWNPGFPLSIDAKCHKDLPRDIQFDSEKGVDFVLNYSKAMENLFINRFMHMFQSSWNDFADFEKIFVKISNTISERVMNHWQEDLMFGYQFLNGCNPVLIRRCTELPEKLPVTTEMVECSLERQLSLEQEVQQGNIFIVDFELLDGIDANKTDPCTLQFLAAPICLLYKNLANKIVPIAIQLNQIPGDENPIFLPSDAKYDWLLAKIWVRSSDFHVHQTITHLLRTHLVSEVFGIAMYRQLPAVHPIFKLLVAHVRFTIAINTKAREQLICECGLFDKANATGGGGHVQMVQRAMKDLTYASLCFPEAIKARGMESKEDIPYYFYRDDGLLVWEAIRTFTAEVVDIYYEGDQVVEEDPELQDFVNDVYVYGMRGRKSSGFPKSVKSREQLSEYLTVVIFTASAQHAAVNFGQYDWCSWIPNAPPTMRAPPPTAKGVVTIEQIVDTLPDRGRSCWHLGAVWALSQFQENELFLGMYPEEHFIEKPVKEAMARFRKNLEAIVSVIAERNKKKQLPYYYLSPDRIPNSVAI
Briefly: In vitro inhibition of human recombinant 5-lipoxygenase enzyme.
For `O=C1OCc2c1cc1cc3c(cc1c2-c1ccc2c(c1)OCO2)OCO3`, the half-maximal inhibitory concentration (IC50) is 500 nM.

Another assay concerns the target T1, Polyunsaturated fatty acid 5-lipoxygenase. The experiment in a line: In vitro inhibition of human recombinant lipoxygenase enzyme; No inhibition.
On to `O=C1OCc2c1cc1cc(OCc3ccc(-c4ccccc4)cn3)ccc1c2-c1ccccc1`, for which the IC50 entry is reported as “Not Active”.

For a further assay the target is unchanged. Briefly: In vitro inhibition of LTB4 biosynthesis by human leukocytes. Format: functional.
In turn, `O=C1OCc2c1cc1ccccc1c2-c1ccccc1` gave an IC50 of 250 nM. The same measure, in the same setting: the same measure for `O=C1OCc2c1cc1cc3c(cc1c2-c1ccc2c(c1)OCO2)OCO3`: 70 nM. Same read-out and setting: to `COc1cccc(-c2c3c(cc4ccccc24)C(=O)OC3)c1` belongs 42 nM; to `O=C1OCc2c1cc1cc3c(cc1c2-c1ccccc1)OCO3`, 160 nM; to `O=C1NCc2c1cc1cc3c(cc1c2-c1ccc2c(c1)OCO2)OCO3`, 4200 nM. The same measure, in the same setting: to `O=C1OCc2c1cc1ccccc1c2-c1ccncc1` belongs over 4000 nM. For `O=C1OCc2c1cc1ccccc1c2-c1ccc2c(c1)OCO2`, the IC50 was 380 nM. On the same count and under the same terms, to `COc1ccc2cc3c(c(-c4ccccc4)c2c1)COC3=O` belongs 670 nM. On the same count and under the same terms, to `Cc1cc2cc3c(cc2c(-c2ccc4c(c2)OCO4)c1C)OCO3` belongs 250 nM; to `O=C1OCc2c1cc1cc(OCc3ccc4ccccc4n3)ccc1c2-c1ccccc1`, 88 nM. Still for that read-out and setting: the same measure for `O=C1OCc2cc3cc4c(cc3c(-c3ccc5c(c3)OCO5)c21)OCO4` [TAIWANIN C]: 250 nM; for `OCc1cc2cc3c(cc2c(-c2ccc4c(c2)OCO4)c1CO)OCO3`: 2200 nM; for `COc1ccc(-c2c3c(cc4ccccc24)C(=O)OC3)cc1`: 1400 nM. `COc1cc2cc3c(c(-c4ccc5c(c4)OCO5)c2cc1OC)COC3=O` [RETROJUSTICIDIN B] gave an IC50 of 760 nM. `O=C1OC(=O)c2c1cc1cc3c(cc1c2-c1ccc2c(c1)OCO2)OCO3` yielded an IC50 of 660 nM. As to `O=C1OCc2c1cc1cc(OCc3ccc(-c4ccccc4)cn3)ccc1c2-c1ccccc1`, the IC50 was 22 nM.

On to `COc1ccc2c(-c3ccccc3)c3c(cc2c1)C(=O)OC3`, for which the IC50 was 180 nM. The compound `c1cc2c(cc1C1c3cocc3Cc3cc4c(cc31)OCO4)OCO2` (stereo unspecified) had an IC50 of 420 nM. `c1cc2c(cc1-c1c3c(cc4cc5c(cc14)OCO5)COC3)OCO2` came in with an IC50 of 230 nM.

`O=C1OCc2c1cc1cc(OCc3ccccc3)ccc1c2-c1ccccc1`: the half-inhibitory concentration (IC50) was 100 nM.

For the compound `COc1ccc(-c2c3c(cc4cc5c(cc24)OCO5)C(=O)OC3)cc1OC`, the 50% inhibitory concentration (IC50) was over 5000 nM.

For `O=C1OCc2c1cc1sccc1c2-c1ccccc1`, the IC50 stood at 450 nM.

In the case of `O=C1OCc2c1cc1ccncc1c2-c1ccccc1`, the IC50 amounted to 3800 nM.

For another assay the target is unchanged. The experiment in a line: In vitro inhibition of human recombinant lipoxygenase enzyme.
Regarding `O=C1OCc2c1cc1cc(OCc3ccccc3)ccc1c2-c1ccccc1`, the IC50 was determined as 3000 nM.

For orientation: IC50 means the point on the concentration scale where inhibition reaches its midpoint.
